Values of other authors as cited in patent US6534088B2, “Fibrate-statin combinations with reduced fed-fasted effects” (SkyePharma Canada Inc., priority 2001, dated 2003).

Legend:
[1] = not given; remark: listed apart in the source

With COCc1c(C(C)C)nc(C(C)C)c(/C=C/[C@@H](O)C[C@@H](O)CC(=O)O)c1-c1ccc(F)cc1 [Cerivastatin] as the compound, how does the solubility in water read?
The solubility in water was “soluble in water”.

What about the “effect of food on absorption” value ([1]; oral administration) of the same compound?
Its value is “not sensitive to a food effect”.

Which solubility in water does the source give for CC(C)n1c(/C=C/C(O)CC(O)CC(=O)O)c(-c2ccc(F)cc2)c2ccccc21 (centres unmarked) [Fluvastatin] here?
The solubility in water was “soluble in water”.

And the “time to peak concentrations” value ([1]; oral administration)?
The value was “less than 1 hour”.

With CC[C@H](C)C(=O)O[C@H]1C[C@@H](C)C=C2C=C[C@H](C)[C@H](CC[C@@H]3C[C@@H](O)CC(=O)O3)[C@H]21 [Lovastatin] as the compound, how does the solubility in water read?
The solubility in water was “insoluble in water”.

Which “solubility in methanol and water” value does the source give for CC[C@H](C)C(=O)O[C@H]1C[C@H](O)C=C2C=C[C@H](C)[C@H](CC[C@@H](O)C[C@@H](O)CC(=O)O)[C@H]21 [Pravastatin] here?
The value was greater than 300 mg/mL.

And the “partition coefficient (octanol/water)” value (pH of 7.0)?
The value was 0.59.

With CC(C)(Oc1ccc(C(=O)c2ccc(Cl)cc2)cc1)C(=O)O [fenofibric acid] as the compound, how does the elimination half-life ([1]; metabolite in blood or plasma) read?
Its elimination half-life is “approximately twenty”.
